Measurements as given in patent US9050341B2, “Methods of treating drug resistant and other tumors by administering 6,7-dialkoxy quinazoline derivatives” (NATCO PHARMA LIMITED, priority 2009, dated 2015).

Legend:
EPHA2 = target: T1, EPHA2 (Homo sapiens, UniProt P29317); assay: KinomeScan kinase profiling; assay type: binding
T1 construct: host or cells: E. coli host derived from BL21, T7 phage lysate

YANK2 = target: T2, YANK2 (Homo sapiens, UniProt Q9NY57); assay: KinomeScan kinase profiling; assay type: binding
T2 construct: purchased Ambit Biosciences Corp (KinomeScan); host or cells: E. coli host derived from the BL21 strain (T7 phage lysate)

PIP5K2B = target: T3, PIP5K2B (Homo sapiens, UniProt P78356); assay: KinomeScan kinase profiling; assay type: binding
T3 construct: purchased Ambit Biosciences Corp (KinomeScan); host or cells: E. coli host derived from BL21, infected with T7 phage

ROS1 = target: T4, ROS1 (Homo sapiens, UniProt P08922); assay: KinomeScan kinase profiling; assay type: binding
T4 construct: host or cells: E. coli host derived from BL21, T7 phage lysate

CSNK1G3 = target: T5, CSNK1G3 (Homo sapiens, UniProt Q9Y6M4); assay: KinomeScan kinase profiling; assay type: binding
T5 construct: purchased Ambit Biosciences Corp (KinomeScan); host or cells: T7 phage in E. coli host derived from BL21

MEK6 = target: T6, MEK6 (Homo sapiens, UniProt P52564); assay: KinomeScan kinase profiling; assay type: binding
T6 construct: host or cells: E. coli derived from BL21, infected with T7 phage

[1] = Toxicokinetics in the 30 day repeated dose study in beagle dogs; assay type: in vivo
Experimental: The 30 day repeated dose study employed 12 male and 12 female dogs (Marshall's Farm, China). The dogs were acclimatized for a minimum period of 2 weeks and randomly divided into four main groups (G1-G4), each group comprising of 3 dogs per sex. The animals were dosed orally with capsules of NRC-2694A for a period of 30 consecutive days at dose levels of 10 mg/kg b.wt/day (G2-low dose), 20 mg/kg b.wt/day (G3-mid dose) and 40 mg/kg b.wt/day (G4-high dose). […] The control group (G1-0 mg/kg b. wt/day) animals were dosed by oral capsule with placebo.
The study also tracked body weight (weekly), food consumption (daily), opthalmological status (start and end), hematological and biochemical analyses (start and end), toxicokinetics analysis of plasma (start and end). At the end of the study, all dogs were euthanized by a humane and accepted procedure, subjected to a gross post-mortem examination, organ weights (absolute and relative) were determined, and histopathological examination was carried out.
The toxicokinetic parameters viz.

T2 sequence (Q9NY57 whole entry): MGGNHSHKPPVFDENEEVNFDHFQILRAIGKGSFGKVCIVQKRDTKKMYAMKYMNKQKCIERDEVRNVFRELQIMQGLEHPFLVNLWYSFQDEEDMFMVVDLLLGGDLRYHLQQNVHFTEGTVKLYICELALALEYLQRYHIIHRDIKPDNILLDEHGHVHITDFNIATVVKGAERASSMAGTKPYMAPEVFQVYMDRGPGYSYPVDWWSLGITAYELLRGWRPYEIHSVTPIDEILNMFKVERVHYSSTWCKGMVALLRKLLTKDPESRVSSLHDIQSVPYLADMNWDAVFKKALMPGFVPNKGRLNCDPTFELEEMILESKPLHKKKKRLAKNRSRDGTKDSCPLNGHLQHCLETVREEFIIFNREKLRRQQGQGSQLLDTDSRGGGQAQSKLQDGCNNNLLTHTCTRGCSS
T3 sequence (P78356 whole entry): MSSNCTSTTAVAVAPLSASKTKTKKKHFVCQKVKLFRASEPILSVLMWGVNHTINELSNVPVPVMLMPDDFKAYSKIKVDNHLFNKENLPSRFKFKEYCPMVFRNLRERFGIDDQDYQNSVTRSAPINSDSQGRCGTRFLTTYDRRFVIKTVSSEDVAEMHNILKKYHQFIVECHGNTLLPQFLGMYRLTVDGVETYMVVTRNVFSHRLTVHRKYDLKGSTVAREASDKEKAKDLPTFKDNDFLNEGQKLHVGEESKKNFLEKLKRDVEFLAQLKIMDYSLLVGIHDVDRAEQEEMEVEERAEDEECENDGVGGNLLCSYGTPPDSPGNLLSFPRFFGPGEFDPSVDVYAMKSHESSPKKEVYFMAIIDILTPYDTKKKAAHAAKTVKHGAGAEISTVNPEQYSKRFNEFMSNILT
T6 sequence (P52564 whole entry): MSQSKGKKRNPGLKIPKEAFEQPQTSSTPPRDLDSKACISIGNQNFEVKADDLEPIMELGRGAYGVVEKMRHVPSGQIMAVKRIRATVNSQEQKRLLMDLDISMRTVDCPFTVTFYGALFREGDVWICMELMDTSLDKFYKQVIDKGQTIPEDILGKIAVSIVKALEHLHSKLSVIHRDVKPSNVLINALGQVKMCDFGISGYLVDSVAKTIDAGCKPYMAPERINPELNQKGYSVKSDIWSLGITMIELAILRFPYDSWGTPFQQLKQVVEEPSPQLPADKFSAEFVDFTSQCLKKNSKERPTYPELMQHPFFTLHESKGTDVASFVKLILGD
T1 sequence (P29317 24-976): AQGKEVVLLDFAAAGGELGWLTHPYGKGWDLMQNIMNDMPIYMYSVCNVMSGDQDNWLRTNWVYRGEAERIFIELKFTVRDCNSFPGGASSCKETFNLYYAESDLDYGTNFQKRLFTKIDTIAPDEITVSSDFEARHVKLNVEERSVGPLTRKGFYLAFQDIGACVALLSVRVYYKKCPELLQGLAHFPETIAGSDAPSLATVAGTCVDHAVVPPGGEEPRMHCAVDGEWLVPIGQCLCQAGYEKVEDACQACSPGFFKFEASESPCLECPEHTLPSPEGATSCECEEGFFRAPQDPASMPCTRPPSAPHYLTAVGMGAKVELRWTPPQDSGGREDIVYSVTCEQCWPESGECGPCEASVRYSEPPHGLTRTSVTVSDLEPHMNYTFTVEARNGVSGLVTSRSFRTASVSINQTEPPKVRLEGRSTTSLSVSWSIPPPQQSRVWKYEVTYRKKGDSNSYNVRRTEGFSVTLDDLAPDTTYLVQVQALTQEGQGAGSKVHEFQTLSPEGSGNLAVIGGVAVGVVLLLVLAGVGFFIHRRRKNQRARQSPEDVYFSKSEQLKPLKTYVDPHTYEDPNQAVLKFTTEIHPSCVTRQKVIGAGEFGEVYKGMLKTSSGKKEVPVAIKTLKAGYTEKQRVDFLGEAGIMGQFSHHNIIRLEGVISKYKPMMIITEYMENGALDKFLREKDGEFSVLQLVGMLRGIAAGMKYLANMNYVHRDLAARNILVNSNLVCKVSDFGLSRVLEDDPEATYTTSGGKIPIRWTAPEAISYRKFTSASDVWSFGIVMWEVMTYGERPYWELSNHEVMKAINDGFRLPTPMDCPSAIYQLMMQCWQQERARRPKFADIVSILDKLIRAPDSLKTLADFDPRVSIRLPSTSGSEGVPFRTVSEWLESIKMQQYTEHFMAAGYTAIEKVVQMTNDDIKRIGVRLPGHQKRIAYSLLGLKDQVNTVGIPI
T5 sequence (Q9Y6M4 whole entry): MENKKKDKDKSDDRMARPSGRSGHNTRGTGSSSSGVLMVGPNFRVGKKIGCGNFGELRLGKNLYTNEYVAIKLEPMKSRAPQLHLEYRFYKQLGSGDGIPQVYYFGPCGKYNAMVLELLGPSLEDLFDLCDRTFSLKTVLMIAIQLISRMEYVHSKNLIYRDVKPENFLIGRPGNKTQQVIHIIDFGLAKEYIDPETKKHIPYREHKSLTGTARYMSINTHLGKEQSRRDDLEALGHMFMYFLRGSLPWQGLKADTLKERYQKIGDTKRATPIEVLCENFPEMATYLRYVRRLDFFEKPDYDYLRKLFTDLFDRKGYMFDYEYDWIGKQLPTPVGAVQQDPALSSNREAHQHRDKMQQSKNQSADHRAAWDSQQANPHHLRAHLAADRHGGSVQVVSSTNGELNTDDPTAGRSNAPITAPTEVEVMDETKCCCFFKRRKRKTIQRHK
T4 sequence (P08922 28-2347): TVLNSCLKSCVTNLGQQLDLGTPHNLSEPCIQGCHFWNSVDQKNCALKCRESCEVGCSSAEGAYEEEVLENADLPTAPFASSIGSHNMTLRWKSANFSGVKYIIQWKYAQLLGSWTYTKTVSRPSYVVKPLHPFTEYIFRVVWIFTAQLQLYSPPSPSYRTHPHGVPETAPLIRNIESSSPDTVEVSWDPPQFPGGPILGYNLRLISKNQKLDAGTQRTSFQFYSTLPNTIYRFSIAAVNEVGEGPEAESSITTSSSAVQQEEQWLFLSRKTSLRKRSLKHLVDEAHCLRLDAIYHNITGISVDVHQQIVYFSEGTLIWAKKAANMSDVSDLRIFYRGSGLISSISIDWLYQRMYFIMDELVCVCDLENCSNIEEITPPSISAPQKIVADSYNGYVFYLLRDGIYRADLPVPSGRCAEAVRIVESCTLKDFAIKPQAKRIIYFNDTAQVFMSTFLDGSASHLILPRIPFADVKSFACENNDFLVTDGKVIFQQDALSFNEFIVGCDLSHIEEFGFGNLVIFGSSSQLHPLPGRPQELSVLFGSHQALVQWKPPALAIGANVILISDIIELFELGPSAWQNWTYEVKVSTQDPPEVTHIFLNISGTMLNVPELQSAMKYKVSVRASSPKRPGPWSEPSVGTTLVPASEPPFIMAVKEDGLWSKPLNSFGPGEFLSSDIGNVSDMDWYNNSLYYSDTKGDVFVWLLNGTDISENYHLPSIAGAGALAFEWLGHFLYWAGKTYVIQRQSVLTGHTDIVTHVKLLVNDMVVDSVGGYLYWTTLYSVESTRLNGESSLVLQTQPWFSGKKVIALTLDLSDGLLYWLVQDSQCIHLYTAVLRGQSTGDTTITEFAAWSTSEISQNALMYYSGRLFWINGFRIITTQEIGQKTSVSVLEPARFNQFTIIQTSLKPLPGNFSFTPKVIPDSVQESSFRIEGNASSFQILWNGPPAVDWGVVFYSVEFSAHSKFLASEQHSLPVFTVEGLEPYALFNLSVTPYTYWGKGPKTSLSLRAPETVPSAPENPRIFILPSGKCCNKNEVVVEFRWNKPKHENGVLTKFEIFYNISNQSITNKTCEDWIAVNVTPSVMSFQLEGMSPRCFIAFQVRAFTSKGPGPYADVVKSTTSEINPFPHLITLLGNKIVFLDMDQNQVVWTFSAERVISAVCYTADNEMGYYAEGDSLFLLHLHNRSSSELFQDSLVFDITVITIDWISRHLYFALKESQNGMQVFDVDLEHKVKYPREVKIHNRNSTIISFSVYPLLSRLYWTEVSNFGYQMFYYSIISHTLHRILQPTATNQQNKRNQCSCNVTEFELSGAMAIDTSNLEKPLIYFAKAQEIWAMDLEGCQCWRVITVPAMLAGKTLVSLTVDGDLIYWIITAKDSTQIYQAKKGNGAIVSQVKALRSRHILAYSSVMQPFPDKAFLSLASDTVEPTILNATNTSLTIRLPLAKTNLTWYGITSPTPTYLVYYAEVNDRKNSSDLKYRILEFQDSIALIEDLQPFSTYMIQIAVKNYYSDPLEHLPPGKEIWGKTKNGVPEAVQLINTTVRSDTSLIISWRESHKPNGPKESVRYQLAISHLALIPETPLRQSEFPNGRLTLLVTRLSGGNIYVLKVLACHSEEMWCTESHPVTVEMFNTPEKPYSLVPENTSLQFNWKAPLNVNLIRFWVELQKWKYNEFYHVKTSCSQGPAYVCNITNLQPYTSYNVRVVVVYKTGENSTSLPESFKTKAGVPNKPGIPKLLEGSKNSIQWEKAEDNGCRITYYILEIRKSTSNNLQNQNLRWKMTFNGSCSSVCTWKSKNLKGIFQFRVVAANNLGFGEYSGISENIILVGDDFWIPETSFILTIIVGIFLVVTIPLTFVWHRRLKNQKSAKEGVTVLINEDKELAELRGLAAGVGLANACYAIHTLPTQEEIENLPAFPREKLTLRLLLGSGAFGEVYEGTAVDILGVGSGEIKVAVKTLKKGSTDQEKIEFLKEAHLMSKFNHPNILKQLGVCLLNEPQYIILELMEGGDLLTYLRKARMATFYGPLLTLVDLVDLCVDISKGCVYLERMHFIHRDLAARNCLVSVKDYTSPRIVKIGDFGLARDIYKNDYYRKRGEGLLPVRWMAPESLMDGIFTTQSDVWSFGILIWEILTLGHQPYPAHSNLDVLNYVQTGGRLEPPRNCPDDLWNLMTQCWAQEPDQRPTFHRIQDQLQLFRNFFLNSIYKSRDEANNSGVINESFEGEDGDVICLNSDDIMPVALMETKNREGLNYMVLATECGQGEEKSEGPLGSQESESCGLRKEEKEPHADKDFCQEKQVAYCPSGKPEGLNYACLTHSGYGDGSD

Row | SMILES | % Ctrl @ 10000 nM (EPHA2) | % Ctrl @ 10000 nM (YANK2) | % Ctrl @ 10000 nM (PIP5K2B) | % Ctrl @ 10000 nM (ROS1) | % Ctrl @ 10000 nM (CSNK1G3) | % Ctrl @ 10000 nM (MEK6) | median Tmax ([1]; day 1, female dogs, 10 mg/kg oral) | median Tmax ([1]; day 1, female dogs, 20 mg/kg oral) | median Tmax ([1]; day 1, female dogs, 40 mg/kg oral) | median Tmax ([1]; day 1, male dogs, 10 mg/kg oral) | median Tmax ([1]; day 1, male dogs, 20 mg/kg oral) | median Tmax ([1]; day 1, male dogs, 40 mg/kg oral) | median Tmax ([1]; day 30, female dogs, 10 mg/kg oral) | median Tmax ([1]; day 30, female dogs, 20 mg/kg oral) | median Tmax ([1]; day 30, male dogs, 10 mg/kg oral) | median Tmax ([1]; day 30, male dogs, 20 mg/kg oral) | Cmax, dose dependence ([1]; three dose levels, male and female dogs)
1 | C#Cc1cccc(Nc2ncnc3cc(OC)c(OCCCN4CCOCC4)cc23)c1 [NRC-2694, N-(3-ethylnylphenyl)-7-methoxy-6-[3-(4-morpholinyl)propoxy]-4-quinazolinamine] | 100 % Ctrl | 68 % Ctrl | 49 % Ctrl | 46 % Ctrl | 61 % Ctrl | 75 % Ctrl |  |  |  |  |  |  |  |  |  |  | 
2 | C#Cc1cccc(Nc2ncnc3cc(OC)c(OCCCN4CCOCC4)cc23)c1.Cl [NRC-2694 monohydrochloride, N-(3-ethylnylphenyl)-7-methoxy-6-[3-(4-morpholinyl)propoxy]-4-quinazolinamine mono hydrochloride] |  |  |  |  |  |  | 2 h | 4 h | 4 h | 2 h | 3 h | 2 h | 2 h | 4 h | 2 h | 3 h | dose-dependent change
